Assay results as given in patent US4816441A, “Peptides and compositions” (priority 1985, dated 1989).

Key:
Raji = assay: NK-like activity of PBL incubated with SpA peptides or intact SpA, 51Cr release, Raji targets; type: cell-based, human; conditions: E/T 10:1
Procedure: (§1) K-cell activity is here defined as the increase in cell mediated cytotoxicity of normal peripheral blood leukocytes (PBL) against tumor derived target cells. PBL were isolated by the Boyum method (Scand.J.Clin.Lab.Invest. 22 (1968) 77) by centrifugation of heparinized blood from healthy donors on Ficoll-Hypaque® (Pharmacia, Uppsala, Sweden). In many experiments adherent cells were removed by incubating PBL in sterile glass bottles at 37° C. for 1 to 2 hours.
(§2) The cell lines were kept in culture in RPMI 1640 (Gibco, Paisley, Scotland, Cat. No. 041-1875) to which was added fetal calf serum (10% v/v) (FCS) as well as penicillin (100 IU/ml) and streptomycin (100 μg/ml) at 37° C. and carbon dioxide in air.
(§3) The target cells were labelled with ^51 Cr (New England Nuclear, Dreieich, West Germany).
(§4) The medium used was RPMI 1640 to which was added 10% of FCS, penicillin (100 IU/ml) and streptomycin (100 μg/ml). After incubation, the cell density was adjusted and the cells were distributed in round-bottom microtiter plates (NUNC, Roskilde, Denmark). ^51 Cr-labeled K562 target cells were added to a desired ratio between effector (E) and target (T) cells (E/T 10:1). After a further 4 hours of incubation at 37° C. with 6% CO2 in air, the plates were placed on a Titertek® microtiter plate shaker (Flow Laboratories Ltd., Ayrshire, Scotland). The microtiter plates were centrifuged and known volumes of the supernatant removed by suction and counted ^51 Cr-sample). As maximum value (^51 Cr-max), use was made of the supernatant from K562 incubated with saponin. The spontaneous release of ^51 Cr (^51 Cr-spont) was measured by incubating ^51 Cr-K562 without effector cells.
(§5) Kill %: […]
(§6) The method employed was practically the same as above for Daudi and Raji targets. The only substantial difference was that no preincubation was performed prior to addition of the ^51 Cr-labelled target cells, and the complete incubation of effector and target cells was done in 24 hours. The Kill % was calculated as described above.

Daudi [1] = assay: NK-like activity of PBL incubated with SpA peptides or intact SpA, 51Cr release, Daudi targets; type: cell-based, human; conditions: E/T 10:1
Procedure: as §1, §2, §3, §4, §5, §6

Daudi [2] = assay: Long-term test, LAK-like activity, Daudi targets; type: cell-based, human; conditions: 20 μg/ml; E/T 10:1
Procedure: 6×10^6 monocyte-depleted mononuclear cells were incubated in 6 ml RPMI 1640 +5% FCS, penicillin (100 IU/ml) and streptomycin (100 μg/ml) in vertically suspended Falcon flasks (Falcon Plastics, Oxnard, CA., USA, Cat. No. 3013). As in the short-term test, 1.5, 6, 25 or 100 μg peptide per ml, respectively, were added. […] Incubation for 72 h at 37° C., 7% CO2. The cells were counted, density adjusted and the cells incubated together with ^51 Cr-labelled Raji and Daudi target cells. E/T ratios were: 10:1 and 20:1. In the Daudi test the incubation lasted 16 hours, in the Raji test it was 18 hours (round-bottom microtiter plates, as above).

complement system = assay: Activation of complement: generation of C5a des-Arg in normal human serum (RIA); type: biochemical; conditions: 60 minutes incubation, aliquots at 0, 30, 60 minutes, FIG. 4
Procedure: In order to investigate the influence of the compounds of the invention on the complement system a test was performed in which the generation of the complement split product C5a was used as a measure of the activation of complement.
Aliquots were taken after 0, 30, and 60 minutes and the generated C5a des-Arg was quantitated by a commercial RIA-kit (Upjohn Company, Kalamazoo, MI).

[3] = Guinea pig model: anaphylactoid-like reaction after intravenous administration; type: in vivo, guinea pigs of Dunkin-Hartley strain; conditions: anaesthesized artificially ventilated guinea pigs
Procedure: Guinea pigs of Dunkin-Hartley strain (ca. 500 g) were anaesthesized with sodium pentobarbital and were surgically prepared with a catheter in the jugular vein for drug infusion. The blood pressure was registered from a carotid artery. The animals were artificially ventilated by a Harvard small animal respirator at a cycle of 38 insufflations per min. and a volume of 1 ml per 100 g animal.

For “SpA: protein A from Staphylococcus aureus, purified, from Pharmacia, Uppsala, Sweden”, the “% kill Raji” value (Raji; 5 μg/ml (12.5 pmol/ml)) was 31%, the “% kill Raji” value (Raji; 5 μg/ml (125 pmol/ml)) was 46% and the “% kill Raji” value (Raji; 10 μg/ml (250 pmol/ml)) was 46%. The “% kill Daudi” value (Daudi [1]; 5 μg/ml (12.5 pmol/ml)) was 66%, the “% kill Daudi” value (Daudi [1]; 5 μg/ml (125 pmol/ml)) was 71% and the “% kill Daudi” value (Daudi [1]; 10 μg/ml (250 pmol/ml)) was 77%. The “Stimulation index, long-term assay (LAK-like activity), Daudi” value (Daudi [2]) was 1.19, the “Activation of complement (C5a des-Arg generation)” value (complement system) was “considerable C5a generating capacity” and the “Anaphylactoid-like reaction (bronchoconstriction, hypertension, later hypotension)” value [3] was “produced an anaphylactoid-like reaction”.
